Converted amounts (≈) assume the structure as drawn. The source made the active and inactive calls. The rule behind the calls is not given here.
Tests used:
Assay type in all cases: functional
[1] = test system: Aggregatibacter actinomycetemcomitans; assay: Antibacterial activity against Actinobacillus actinomycetemcommitans ATCC 43717 after 1 to 2 days under anaerobic condition by serial dilution method
[2] = test system: Actinomyces naeslundii; assay: Antibacterial activity against Actinomyces naeslundii ATCC 12104 after 1 to 2 days under anaerobic condition by serial dilution method
[3] = test system: Streptococcus mutans; assay: Antibacterial activity against Streptococcus mutans ATCC 25175 after 1 to 2 days under anaerobic condition by serial dilution method

MIC [1] | MIC [2] | MIC [3] | Structure (SMILES) | Activity [1]
> 250 µg/mL | 62.5 µg/mL (≈ 207 µM) | 62.5 µg/mL (≈ 207 µM) | C=C[C@@]1(C)CC[C@@]2(C)[C@@H](CC=C3[C@@H]2CCC[C@]3(C)C(=O)O)C1 [SAGITTINE A] | 
 |  |  | C=C[C@@]1(C)CC[C@@]2(C)[C@@H](CC[C@]3(O)[C@@H]2CCC[C@]3(C)C(=O)O)C1 | inactive
250 µg/mL (≈ 540 µM) | 125 µg/mL (≈ 270 µM) | 125 µg/mL (≈ 270 µM) | C=C[C@@]1(C)CC[C@@]2(C)[C@@H](CC=C3[C@@H]2CCC[C@]3(C)CO[C@@H]2O[C@@H](CO)[C@H](O)[C@H]2OC(C)=O)C1 [SAGITTINE D] | 
> 250 µg/mL | 62.5 µg/mL (≈ 124 µM) | > 250 µg/mL | C=C[C@@]1(C)CC[C@@]2(C)[C@@H](CC=C3[C@@H]2CCC[C@]3(C)CO[C@@H]2O[C@@H](COC(C)=O)[C@H](O)[C@H]2OC(C)=O)C1 [SAGITTINE E] | 
 |  |  | C=C[C@@]1(C)CC[C@@]2(C)[C@@H](CC=C3[C@@H]2CCC[C@]3(C)CO[C@@H]2O[C@@H](COC(C)=O)[C@H](OC(C)=O)[C@H]2O)C1 | inactive
250 µg/mL (≈ 540 µM) | 62.5 µg/mL (≈ 135 µM) | 62.5 µg/mL (≈ 135 µM) | C=C[C@@]1(C)CC[C@@]2(C)[C@@H](CC=C3[C@@H]2CCC[C@]3(C)CO[C@@H]2O[C@@H](COC(C)=O)[C@H](O)[C@H]2O)C1 [SAGITTINE C] | 
250 µg/mL (≈ 594 µM) | 125 µg/mL (≈ 297 µM) | 62.5 µg/mL (≈ 149 µM) | C=C[C@@]1(C)CC[C@@]2(C)[C@@H](CC=C3[C@@H]2CCC[C@]3(C)CO[C@@H]2O[C@@H](CO)[C@H](O)[C@H]2O)C1 [SAGITTINE B] | 

Reference: ChEMBL document CHEMBL1157253, “ent-rosane and labdane diterpenoids from Sagittaria sagittifolia and their antibacterial activity against three oral pathogens” (2006)
